Experimental data reported in patent publication US12264173B2 (GILEAD SCIENCES, INC., priority 2020, dated 2025).
Like-named read-outs stand apart in the source and are kept apart here.

Assays:
Type in all cases: cell-based
[1] = tested on: DENV2 replicon; experiment: DENV-2 Huh-7 Rep EC50 (replicon luminescence)
Procedure, shortened: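 Huh-7 cells carrying a DENV2 replicon, 5,000 cells/well, were incubated with dosed compounds for 48 h at 37° C. EnduRen live-cell substrate was added 1.5 h before luminescence reading. EC50 came from dose-response against DMSO-only wells.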

[2] = tested on: RSV strain A2; experiment: microbe, parasite or virus in culture; conditions: Table 3, HEp-2 cells, RSV A2, 4 days, read-out: RSV HEp-2 EC50
Procedure, shortened: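 Cytopathic-effect protection assay: HEp-2 cells (50,000/mL) infected with pre-titered RSV A2 onto 3-fold serial compound dilutions, incubated 4 days at 37° C. Cell viability read by CellTiter-Glo luminescence; percent inhibition derived against 0% and 100% virus-inhibition controls.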

[3] = tested on: HRV16; experiment: HRV16 HeLa EC50 (cytopathic effect in H1-HeLa cells)
Procedure, shortened: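 H1-HeLa cells seeded one day before, given 3-fold serial compound dilutions in triplicate just prior to infection with pre-titrated virus. Incubated 96 h at 33 °C/5% CO2; protection from cytopathic effect read as viability by CellTiter-Glo luminescence, normalised to infected untreated (0%) and uninfected (100%) controls.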

[4] = tested on: RSV A2; experiment: RSV NHBE EC50 (RSV A2 antiviral assay in NHBE cells); conditions: Table 3, NHBE cells, RSV A2, 4 days, read-out: RSV NHBE EC50
Procedure, shortened: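 NHBE cells (≤6 passages) were seeded at 7,500 cells per well, treated with 3-fold serially diluted compound at 0.05% DMSO, then infected with RSV A2 at 1×10^4.5 TCID/mL. After 4 days at 37° C, viability was measured by CellTiter-Glo luminescence.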

[5] = Table 3, Huh-7 DENV2 replicon cells, 48 hours, read-out: DENV-2 REP Huh7 EC50
[6] = Table 3; H1-HeLa cells, 96 h; read-out: HRV16 HeLa EC50
[7] = Dengue virus, DENV2, Huh-7, 48 h, read-out: DENV-2 REP Huh7 EC50, Table 3, Huh-7 DENV2 replicon cells, 48 hours
[8] = human respiratory syncytial virus, HEp-2, 96 h
[9] = 96 h, Table 3; H1-HeLa cells, 96 h; read-out: HRV16 HeLa EC50
[10] = human respiratory syncytial virus, NHBE, 96 h
[11] = Dengue virus, DENV2, Huh-7, 48 h, read-out: DENV-2 REP Huh7 EC50

CCC(=O)O[C@H]1[C@H](c2ccc3c(N)ncnn23)O[C@](C#N)(COP(=O)(N[C@@H](C)C(=O)OC2CCC2)Oc2ccccc2)[C@H]1OC(=O)CC (stereo partly drawn) [Example 195, (2R,3S,4S,5S)-5-(4-aminopyrrolo[2,1-f][1,2,4]triazin-7-yl)-2-cyano-2-((((((S)-1-cyclobutoxy-1-oxopropan-2-yl)amino)(phenoxy)phosphoryl)oxy)methyl) tetrahydrofuran-3,4-diyl dipropionate]
EC50 [1, 5]: 6440 nM
EC50 [2]: 23 nM
EC50 [3, 6]: 126 nM
EC50 [4]: 59 nM

CCC(=O)O[C@H]1[C@H](c2ccc3c(N)ncnn23)O[C@](C#N)(CO[P@](=O)(N[C@@H](C)C(=O)OC2CCC2)Oc2ccccc2)[C@H]1OC(=O)CC [Example 196, (2R,3S,4S,5S)-5-(4-aminopyrrolo[2,1-f][1,2,4]triazin-7-yl)-2-cyano-2-((((R)-(((S)-1-cyclobutoxy-1-oxopropan-2-yl)amino)(phenoxy)phosphoryl)oxy)methyl) tetrahydrofuran-3,4-diyl dipropionate]
EC50 [1, 5]: 1960 nM
EC50 [2]: 42 nM
EC50 [3, 6]: 96 nM
EC50 [4]: 27 nM

CC(C)C(=O)O[C@H]1[C@H](c2ccc3c(N)ncnn23)O[C@](C#N)(COP(=O)(N[C@@H](C)C(=O)OC2CCC2)Oc2ccccc2)[C@H]1OC(=O)C(C)C (stereo partly drawn) [Example 197, (2R,3S,4S,5S)-5-(4-aminopyrrolo[2,1-f][1,2,4]triazin-7-yl)-2-cyano-2-((((((S)-1-cyclobutoxy-1-oxopropan-2-yl)amino)(phenoxy)phosphoryl)oxy)methyl) tetrahydrofuran-3,4-diyl bis(2-methylpropanoate)]
EC50 [1, 5]: 4460 nM
EC50 [2]: 28 nM
EC50 [3, 6]: 94 nM
EC50 [4]: 33 nM

CC(=O)O[C@H]1[C@H](c2ccc3c(N)ncnn23)O[C@](C#N)(COP(=O)(N[C@@H](C)C(=O)OC2CCC2)Oc2ccccc2)[C@H]1OC(C)=O (stereo partly drawn) [Example 198, (2R,3S,4S,5S)-5-(4-aminopyrrolo[2,1-f][1,2,4]triazin-7-yl)-2-cyano-2-((((((S)-1-cyclobutoxy-1-oxopropan-2-yl)amino)(phenoxy)phosphoryl)oxy)methyl) tetrahydrofuran-3,4-diyl diacetate]
EC50 [1, 5]: 6620 nM
EC50 [2]: 48 nM
EC50 [3, 6]: 319 nM
EC50 [4]: 37 nM

CCC(=O)O[C@H]1[C@H](c2ccc3c(N)ncnn23)O[C@](C#N)(COP(=O)(N[C@@H](C)C(=O)OC)N[C@@H](C)C(=O)OC)[C@H]1OC(=O)CC [Example 199]
EC50 [1, 7]: > 50000 nM
EC50 [2, 8]: 4110 nM
EC50 [3, 9]: 19500 nM
EC50 [4, 10]: 235 nM

CC(C)C(=O)O[C@H]1[C@H](c2ccc3c(N)ncnn23)O[C@](C#N)(COP(=O)(N[C@@H](C)C(=O)OCC2COC2)Oc2ccccc2)[C@H]1OC(=O)C(C)C (stereo partly drawn) [Example 200, (2R,3S,4S,5S)-5-(4-aminopyrrolo[2,1-f][1,2,4]triazin-7-yl)-2-cyano-2-((((((S)-1-(oxetan-3-ylmethoxy)-1-oxopropan-2-yl)amino)(phenoxy)phosphoryl)oxy)methyl) tetrahydrofuran-3,4-diyl bis(2-methylpropanoate)]
EC50 [1, 11]: 2180 nM
EC50 [2, 8]: 58 nM
EC50 [3, 9]: 120 nM
EC50 [4, 10]: 12 nM

CCC(=O)O[C@H]1[C@H](c2ccc3c(N)ncnn23)O[C@](C#N)(COP(=O)(N[C@@H](C)C(=O)OCC2COC2)Oc2ccccc2)[C@H]1OC(=O)CC (stereo partly drawn) [Example 203, (2R,3S,4S,5S)-5-(4-aminopyrrolo[2,1-f][1,2,4]triazin-7-yl)-2-cyano-2-((((((S)-1-(oxetan-3-ylmethoxy)-1-oxopropan-2-yl)amino)(phenoxy)phosphoryl)oxy)methyl) tetrahydrofuran-3,4-diyl dipropionate]
EC50 [1, 11]: 9500 nM
EC50 [2, 8]: 95 nM
EC50 [3, 9]: 359 nM
EC50 [4, 10]: 38 nM

C[C@H](NP(=O)(OC[C@@]1(C#N)O[C@@H](c2ccc3c(N)ncnn23)[C@H](OC(=O)C(C)(C)C)[C@@H]1OC(=O)C(C)(C)C)Oc1ccccc1)C(=O)OC1COC1 (stereo partly drawn) [Example 206, (2R,3S,4S,5S)-5-(4-aminopyrrolo[2,1-f][1,2,4]triazin-7-yl)-2-cyano-2-((((((S)-1-(oxetan-3-yloxy)-1-oxopropan-2-yl)amino)(phenoxy)phosphoryl)oxy)methyl) tetrahydrofuran-3,4-diyl bis(2,2-dimethylpropanoate)]
EC50 [1, 11]: 7590 nM
EC50 [2, 8]: 338 nM
EC50 [3, 9]: 308 nM
EC50 [4, 10]: 36 nM

CCCCC(=O)O[C@H]1[C@H](c2ccc3c(N)ncnn23)O[C@](C#N)(COP(=O)(N[C@@H](C)C(=O)OCC)N[C@@H](C)C(=O)OCC)[C@H]1OC(=O)CCCC [Example 211, (2R,3S,4S,5S)-5-(4-Aminopyrrolo[2,1-f][1,2,4]triazin-7-yl)-2-(((bis(((S)-1-ethoxy-1-oxopropan-2-yl)amino)phosphoryl)oxy)methyl)-2-cyanotetrahydrofuran-3,4-diyl dipentanoate]
EC50 ([1]; read-out: DENV-2 REP Huh7 EC50, Table 3, Huh-7 DENV2 replicon cells, 48 hours): 28900 nM
EC50 [2]: 653 nM
EC50 [3, 6]: 1970 nM
EC50 [4]: 946 nM

CCCC(=O)O[C@H]1[C@H](c2ccc3c(N)ncnn23)O[C@](C#N)(COP(=O)(N[C@@H](C)C(=O)OC)N[C@@H](C)C(=O)OC)[C@H]1OC(=O)CCC [Example 212, (2R,3S,4S,5S)-5-(4-Aminopyrrolo[2,1-f][1,2,4]triazin-7-yl)-2-(((bis(((S)-1-methoxy-1-oxopropan-2-yl)amino)phosphoryl)oxy)methyl)-2-cyanotetrahydrofuran-3,4-diyl dibutyrate]
EC50 [1, 7]: > 71400 nM
EC50 [2, 8]: 1180 nM
EC50 [3, 9]: 6120 nM
EC50 [4, 10]: 451 nM

CSCCOP(=O)(N[C@@H](C)C(=O)OC(C)C)OC[C@@]1(C#N)O[C@@H](c2ccc3c(N)ncnn23)[C@H](OC(=O)C(C)C)[C@@H]1OC(=O)C(C)C (stereo partly drawn) [Example 213, (2R,3S,4S,5S)-5-(4-aminopyrrolo[2,1-f][1,2,4]triazin-7-yl)-2-cyano-2-((((((S)-1-isopropoxy-1-oxopropan-2-yl)amino)(2-(methylthio)ethoxy)phosphoryl)oxy)methyl) tetrahydrofuran-3,4-diyl bis(2-methylpropanoate)]
EC50 [1, 7]: 23000 nM
EC50 [2, 8]: 11800 nM
EC50 [3, 9]: 13100 nM
EC50 [4, 10]: 2250 nM

COCCOP(=O)(N[C@@H](C)C(=O)OC(C)C)OC[C@@]1(C#N)O[C@@H](c2ccc3c(N)ncnn23)[C@H](OC(=O)C(C)C)[C@@H]1OC(=O)C(C)C (stereo partly drawn) [Example 214, (2R,3S,4S,5S)-5-(4-aminopyrrolo[2,1-f][1,2,4]triazin-7-yl)-2-cyano-2-((((((S)-1-isopropoxy-1-oxopropan-2-yl)amino)(2-methoxyethoxy)phosphoryl)oxy)methyl) tetrahydrofuran-3,4-diyl bis(2-methylpropanoate)]
EC50 [1, 7]: > 50000 nM
EC50 [2, 8]: > 41700 nM
EC50 [3, 9]: 31300 nM
EC50 [4, 10]: > 3890 nM

CCC(=O)O[C@H]1[C@H](c2ccc3c(N)ncnn23)O[C@](C#N)(COP(=O)(N[C@@H](C)C(=O)OC(C)C)Oc2ccc(OCCOC)cc2)[C@H]1OC(=O)CC (stereo partly drawn) [Example 215, (2R,3S,4S,5S)-5-(4-aminopyrrolo[2,1-f][1,2,4]triazin-7-yl)-2-cyano-2-((((((S)-1-isopropoxy-1-oxopropan-2-yl)amino)(4-(2-methoxyethoxy)phenoxy)phosphoryl)oxy)methyl)tetrahydrofuran-3,4-diyl dipropionate]
EC50 [1, 11]: 27200 nM
EC50 [2, 8]: 378 nM
EC50 [3, 9]: 1020 nM
EC50 [4, 10]: 142 nM

CC(C)OC(=O)[C@H](C)N[P@](=O)(OC[C@@]1(C#N)O[C@@H](c2ccc3c(N)ncnn23)[C@H](OC(=O)CN2CCOCC2)[C@@H]1OC(=O)CN1CCOCC1)Oc1ccccc1 [Example 216, (2R,3S,4S,5S)-5-(4-aminopyrrolo[2,1-f][1,2,4]triazin-7-yl)-2-cyano-2-((((S)-(((S)-1-isopropoxy-1-oxopropan-2-yl)amino)(phenoxy)phosphoryl)oxy)methyl) tetrahydrofuran-3,4-diyl bis(2-morpholinoacetate)]
EC50 [1, 11]: 31200 nM
EC50 [2, 8]: 262 nM
EC50 [3, 9]: 3500 nM
EC50 [4, 10]: 3870 nM

CCC(=O)O[C@H]1[C@H](c2ccc3c(N)ncnn23)O[C@](C#N)(COP(=O)(N[C@@H](C)C(=O)OC(C)C)Oc2ccc(C[C@H](N)C(=O)OC)cc2)[C@H]1OC(=O)CC (stereo partly drawn) [Example 217, (2R,3S,4S,5S)-2-((((4-((S)-2-amino-3-methoxy-3-oxopropyl)phenoxy)(((S)-1-isopropoxy-1-oxopropan-2-yl)amino)phosphoryl)oxy)methyl)-5-(4-aminopyrrolo[2,1-f][1,2,4]triazin-7-yl)-2-cyanotetrahydrofuran-3,4-diyl dipropionate]
EC50 [1, 11]: > 50000 nM
EC50 [2, 8]: 9840 nM
EC50 [3, 9]: 11900 nM
EC50 [4, 10]: 2060 nM
